What all share (test): relative viability (nuclei count vs DMSO), 5 days (fraction); higher = more cells survive
Compound in the assay “Dactolisib + Pemetrexed”: Cn1c(=O)n(-c2ccc(C(C)(C)C#N)cc2)c2c3cc(-c4cnc5ccccc5c4)ccc3ncc21 [Dactolisib] + Nc1nc2[nH]cc(CCc3ccc(C(=O)N[C@@H](CCC(=O)O)C(=O)O)cc3)c2c(=O)[nH]1 [Pemetrexed] (partner 0.2 µM)
A digest of the protocol:
(§1)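 Lung cancer cell lines were pin-tool dosed in 1536-well plates on the day after seeding, with either a lone drug or a fixed anchor-drug dose plus five library-drug doses (not always all listed) in √10 steps. Nuclei were counted on 4× images after 5 days. Relative viability is the ratio of treated-well to vehicle-well nuclei counts, with each value a median of duplicate plates.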

Compound in the assay “AZ505 + Alpelisib”: C1CCC(CC1)N(CCNCCC2=C3C(=C(C=C2)O)NC(=O)CO3)C(=O)CCNCCC4=CC(=C(C=C4)Cl)Cl [AZ505] + Cc1nc(NC(=O)N2CCC[C@H]2C(N)=O)sc1-c1ccnc(C(C)(C)C(F)(F)F)c1 [Alpelisib] (partner 2 µM)
A digest of the protocol:
as §1

Compound in a further assay: C1CCC(CC1)N(CCNCCC2=C3C(=C(C=C2)O)NC(=O)CO3)C(=O)CCNCCC4=CC(=C(C=C4)Cl)Cl [AZ505]
A digest of the protocol:
(§2)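 A plate was accepted only when its control CV was below 25% and the cells had doubled at least once. Viability is defined from nuclear counts as treated wells divided by vehicle wells, with the median taken across plates. That median covers lung cancer cell lines grown in 1536-well plates, dosed by pinning at five √10-spaced library-drug concentrations, and counted in MetaXpress from 4× Hoechst images after 5 days.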

Compound in another assay: Cn1c(=O)n(-c2ccc(C(C)(C)C#N)cc2)c2c3cc(-c4cnc5ccccc5c4)ccc3ncc21 [Dactolisib]
The procedure, abridged: as §2

For the cell line NCI-H2009, the relative viability stood at 1.09 in the assay with Dactolisib + Pemetrexed (first compound 0.002 µM); 1.07 with Dactolisib + Pemetrexed (first compound 0.006325 µM); 1 with Dactolisib + Pemetrexed (first compound 0.02 µM); 0.964 with Dactolisib + Pemetrexed (first compound 0.06325 µM); 0.498 with Dactolisib + Pemetrexed (first compound 0.2 µM); 1.07 with AZ505 + Alpelisib (first compound 0.08 µM). Also, the relative viability with AZ505 + Alpelisib (first compound 0.253 µM) turned out to be 1.11; in the assay with AZ505 + Alpelisib (first compound 0.8 µM) it was 1.12; in the assay with AZ505 + Alpelisib (first compound 2.53 µM), 1.1; with AZ505 + Alpelisib (first compound 8 µM), 1.13; in the assay with AZ505 (0.08 µM), 0.987; in the assay with AZ505 (0.253 µM), 0.986. The relative viability with AZ505 (0.8 µM) was determined as 0.998; with AZ505 (2.53 µM) it was 0.921; with AZ505 (8 µM), 0.952; with Dactolisib (0.002 µM) it was 1.05; in the assay with Dactolisib (0.006325 µM), 0.983; with Dactolisib (0.02 µM), 1.04. For the same cell line, the relative viability stood at 0.598 in the assay with Dactolisib (0.06325 µM) and 0.366 with Dactolisib (0.2 µM).
201T: the relative viability in the assay with Dactolisib + Pemetrexed (first compound 0.002 µM) was 0.329; in the assay with Dactolisib + Pemetrexed (first compound 0.006325 µM), 0.295; with Dactolisib + Pemetrexed (first compound 0.02 µM), 0.292; in the assay with Dactolisib + Pemetrexed (first compound 0.06325 µM), 0.272; with Dactolisib + Pemetrexed (first compound 0.2 µM), 0.247; in the assay with AZ505 + Alpelisib (first compound 0.08 µM), 0.942. For the same cell line, the relative viability worked out at 1.01 in the assay with AZ505 + Alpelisib (first compound 0.253 µM); 0.973 with AZ505 + Alpelisib (first compound 0.8 µM); 1.04 with AZ505 + Alpelisib (first compound 2.53 µM); 1.05 in the assay with AZ505 + Alpelisib (first compound 8 µM); 0.962 with AZ505 (0.08 µM); 0.998 with AZ505 (0.253 µM). The relative viability with AZ505 (0.8 µM) stood at 0.98; in the assay with AZ505 (2.53 µM) it was 0.974; with AZ505 (8 µM), 1.01; with Dactolisib (0.002 µM) it was 1.02; in the assay with Dactolisib (0.006325 µM), 1.01; with Dactolisib (0.02 µM), 0.992. The relative viability with Dactolisib (0.06325 µM) came to 0.863; with Dactolisib (0.2 µM) it was 0.636.
Regarding NCI-H23, the relative viability came to 0.635 with Dactolisib + Pemetrexed (first compound 0.002 µM); 0.635 with Dactolisib + Pemetrexed (first compound 0.006325 µM); 0.563 in the assay with Dactolisib + Pemetrexed (first compound 0.02 µM); 0.289 with Dactolisib + Pemetrexed (first compound 0.06325 µM); 0.296 with Dactolisib + Pemetrexed (first compound 0.2 µM); 0.617 with AZ505 + Alpelisib (first compound 0.08 µM). Further, the relative viability with AZ505 + Alpelisib (first compound 0.8 µM) was found to be 0.653; with AZ505 + Alpelisib (first compound 2.53 µM) it was 0.644; with AZ505 + Alpelisib (first compound 8 µM), 0.845; with AZ505 (0.08 µM), 0.848; in the assay with AZ505 (0.8 µM), 0.874; with AZ505 (2.53 µM), 0.995. The relative viability in the assay with AZ505 (8 µM) was 1.12; with Dactolisib (0.002 µM) it was 1.05; in the assay with Dactolisib (0.006325 µM), 0.863; with Dactolisib (0.02 µM), 0.835; with Dactolisib (0.06325 µM) it was 0.372; in the assay with Dactolisib (0.2 µM) it was 0.335.
As for LOU-NH91, the relative viability came to 0.287 with Dactolisib + Pemetrexed (first compound 0.002 µM); 0.377 with Dactolisib + Pemetrexed (first compound 0.006325 µM); 0.372 with Dactolisib + Pemetrexed (first compound 0.02 µM); 0.431 with Dactolisib + Pemetrexed (first compound 0.06325 µM); 0.445 in the assay with Dactolisib + Pemetrexed (first compound 0.2 µM); 0.622 with AZ505 + Alpelisib (first compound 0.08 µM). Moreover, the relative viability with AZ505 + Alpelisib (first compound 0.253 µM) was determined as 0.636; with AZ505 + Alpelisib (first compound 0.8 µM), 0.611; with AZ505 + Alpelisib (first compound 2.53 µM), 0.631; with AZ505 + Alpelisib (first compound 8 µM), 0.742; with AZ505 (0.08 µM) it was 0.9; with AZ505 (0.253 µM), 0.937. Besides, the relative viability in the assay with AZ505 (0.8 µM) worked out at 0.967; with AZ505 (2.53 µM), 0.983; with AZ505 (8 µM) it was 1.01; with Dactolisib (0.002 µM), 0.994; in the assay with Dactolisib (0.006325 µM), 0.997; with Dactolisib (0.02 µM), 0.885. Further, the relative viability with Dactolisib (0.06325 µM) was found to be 0.613; in the assay with Dactolisib (0.2 µM), 0.623.
For the cell line NCI-H2085, the relative viability in the assay with Dactolisib + Pemetrexed (first compound 0.002 µM) worked out at 0.905; with Dactolisib + Pemetrexed (first compound 0.006325 µM) it was 0.884; with Dactolisib + Pemetrexed (first compound 0.02 µM), 0.811; in the assay with Dactolisib + Pemetrexed (first compound 0.06325 µM), 0.345; with Dactolisib + Pemetrexed (first compound 0.2 µM) it was 0.273; in the assay with AZ505 + Alpelisib (first compound 0.08 µM), 0.825. The relative viability in the assay with AZ505 + Alpelisib (first compound 0.253 µM) was found to be 0.905; in the assay with AZ505 + Alpelisib (first compound 0.8 µM), 0.884; in the assay with AZ505 + Alpelisib (first compound 2.53 µM), 1.01; with AZ505 + Alpelisib (first compound 8 µM), 1.01; with AZ505 (0.08 µM), 0.872; with AZ505 (0.253 µM), 0.953. Moreover, the relative viability in the assay with AZ505 (0.8 µM) is 0.894; in the assay with AZ505 (2.53 µM), 0.971; in the assay with AZ505 (8 µM), 1.05; with Dactolisib (0.002 µM), 1.02; with Dactolisib (0.006325 µM) it was 0.986; with Dactolisib (0.02 µM), 0.96. Moreover, the figures for the relative viability with Dactolisib (0.06325 µM) and with Dactolisib (0.2 µM) were 0.553 and 0.387, respectively.

The record behind these values is the supplement of paper PMC10307832.
